The results in this text go back to patent US6894061B2, “Substituted dihydrophenanthridinesulfonamides” (Wyeth, priority 2002, dated 2005).

One series deals with IL-6. Kind of series: IL-6 test procedure (IL-6 ELISA of media) in Ad5-wt-ERα infected HAECT-1 cells. Type of series: cell-based, human. The note with it: Homo sapiens, HAECT1, IL-1β; for Emax: read-out: Interleukin-6 Efficacy (%); for IC50: read-out: Interleukin-6 IC50. The method, then:
After four hours, cells were washed with EBM-BSA and incubated overnight in the same medium. Following overnight incubation, cells were washed with EBM-BSA and infected for 2 hours with 6 mL of a 1:10 dilution of Ad5-3x(NFκB).Luc virus (Adenovirus luciferase expression vector driven by 3 repeats of the MHC NFκb site 5′ to the thymidine kinase promoter) in EBM-BSA. After two hours, cells were washed and incubated at 34° C. for 1 hour. […] Control (no ER infection) cells were processed as above without Ad5-wt-hERα virus infection.
ERα infected HAECT-1 cells or control cells were thawed, diluted 42× in warm EBM-BSA, plated into 96-well plates at 0.1 mL/well and incubated for 4 hours at 34° C. Test compounds were added to the cells as 2× stocks in EBM-BSA containing 2 ng/mL IL-1β (R&D Systems) and the 96-well plates were returned to the incubator (34° C.). After 15-20 hours, 100 μL aliquots of media were removed from the cells and assayed for IL-6 content using a BioSource human IL-6 ELISA Kit. Cells were subsequently washed with 300 μL of Dulbecco's phosphate buffered saline and lysed in 50 μL of Cell Culture Lysis Reagent (Promega). Luciferase was determined on a Wallac Victor^2 Luminometer (Gaithersburg, Md.) using 10 μL of lysate and mixing with 100 μL of Promega Luciferase Assay reagent. Creatine kinase was determined from the rate of increase in A340 following addition of 100 μL of CK assay reagent (Sigma, cat. No 47-10) to the remainder of the cell lysate.
For IC50 and EC50 calculations, mean IL-6, luciferase or CK values versus log10 of the compound concentration were fitted to a four parameter logistic equation. The IC50/EC50 value, ‘Hill slope’, upper and lower limits of the curve were iteratively estimated.

The test system of another series is creatine kinase. Description: Creatine kinase (CK) test procedure in Ad5-wt-ERα infected HAECT-1 cells. The class given is cell-based, human. The note with it: Homo sapiens, HAECT1, Ad5-wt-ERα infected HAECT-1 cells; for EC50: read-out: Creatin Kinase EC50; for Emax / Emax at 10 µM: read-out: Creatin Kinase Efficacy (%).
Another series relates to ER/NF-κB. Description: ER/NF-κB luciferase reporter in Ad5-wt-ERα infected HAECT-1 cells. The class given is cell-based, human. The note with it: Homo sapiens, HAECT1, IL-1β; for IC50: read-out: ER/NFκB IC50; for Emax: read-out: ER/NFκB Efficacy (%)*. In general terms: Reporter assays use an easily measured gene product as a stand-in for the process of interest.

Consider `C[C@@H]1c2cc(F)ccc2-c2ccc(F)cc2N1S(=O)(=O)c1ccc(O)cc1` (single isomer, unassigned) [Example 99], for which, in the series on IL-6, the Emax worked out at 139% and the IC50 came to 341 nM.

Turning to `C[C@H]1c2cc(F)ccc2-c2ccc(F)cc2N1S(=O)(=O)c1ccc(O)cc1` (single isomer, unassigned) [Example 100], in the series with IL-6, the Emax amounted to 196% and the IC50 is 6.9 nM.

Take `C[C@@H]1c2cc(F)ccc2-c2ccc(F)cc2N1S(=O)(=O)c1cccc(O)c1` (single isomer, unassigned) [Example 101]: in the series with IL-6, the Emax turned out to be 74% and the IC50 was 1280 nM.

As for `C[C@H]1c2cc(F)ccc2-c2ccc(F)cc2N1S(=O)(=O)c1cccc(O)c1` (single isomer, unassigned) [Example 102], in the series with IL-6, the Emax came out at 156% and the IC50 was found to be 5.4 nM.

As a reminder, the EC50 is the concentration giving half of the maximal effect. For `C[C@H]1c2cc(F)ccc2-c2ccc(F)cc2N1S(=O)(=O)c1ccc(O)cc1O` (single isomer, unassigned) [Example 103], in the series on IL-6, the Emax worked out at 141% and the IC50 came to 47 nM. Besides, in the series on creatine kinase, the EC50 stood at 85 nM and the Emax stood at 9%.

Turning to `C[C@@H]1c2cc(F)ccc2-c2ccc(F)cc2N1S(=O)(=O)c1ccc(O)cc1O` (single isomer, unassigned) [Example 104], in the series with IL-6, the Emax was 43% and the IC50 is 171 nM. Further, the Emax with creatine kinase came to 9%.

A word on the melting point: it is the temperature, or range, at which the solid turns liquid. For `CCC1c2ccc(C)cc2-c2ccccc2N1S(=O)(=O)c1ccc(O)cc1` (centres unmarked) [Example 43, 4-[(6-Ethyl-9-methylphenanthridin-5(6H)-yl)sulfonyl]phenol], the melting point lay in the range of 167 to 170 °C. In addition, the IC50 with ER/NF-κB was greater than 10000 nM. The Emax at 10 µM in the series on creatine kinase is less than 35%.

On to `CCC1c2cc(F)ccc2-c2cc(Br)ccc2N1S(=O)(=O)c1ccc(O)cc1` (centres unmarked) [Example 44, 4-[(2-Bromo-6-ethyl-8-fluorophenanthridin-5(6H)-yl)sulfonyl]phenol], for which the melting point fell in the range of 220 to 221 °C. Besides, in the series with ER/NF-κB, the Emax was 94% and the IC50 was 85 nM. The Emax at 10 µM in the series on creatine kinase is less than 35%.

Compound `CC1c2cc(F)ccc2-c2cc(Br)ccc2N1S(=O)(=O)c1ccc(O)cc1` (centres unmarked) [Example 45, 4-[(2-Bromo-8-fluoro-6-methylphenanthridin-5(6H)-yl)sulfonyl]phenol] yielded a melting point of 237 to 239 °C. In addition, in the series on ER/NF-κB, the Emax came to 92% and the IC50 is 357 nM. The Emax at 10 µM in the series with creatine kinase is less than 35%.

`CCC1c2cc(F)ccc2-c2ccccc2N1S(=O)(=O)c1ccc(O)c(Cl)c1` (centres unmarked) [Example 46, 2-Chloro-4-[(6-ethyl-8-fluorophenanthridin-5(6H)-yl)sulfonyl]phenol]: the melting point was in the range of 174 to 177 °C. Moreover, the IC50 with ER/NF-κB was greater than 10000 nM. In addition, the Emax at 10 µM with creatine kinase was less than 35%.

Compound `CCC1c2cc(F)ccc2-c2cc(-c3ccccc3)ccc2N1S(=O)(=O)c1ccc(O)cc1` (centres unmarked) [Example 47, 4-[(6-Ethyl-8-fluoro-2-phenylphenanthridin-5(6H)-yl)sulfonyl]phenol] gave a melting point of 207 °C. In addition, in the series on ER/NF-κB, the Emax was 89% and the IC50 stood at 60 nM. Moreover, the Emax at 10 µM with creatine kinase was less than 35%.

`CC1c2cc(F)ccc2-c2ccccc2N1S(=O)(=O)c1cccc(O)c1` (centres unmarked) [Example 48, 3-[(8-fluoro-6-methylphenanthridin-5(6H)-yl)sulfonyl]phenol]: the melting point is 161 °C. For the same compound, in the series on ER/NF-κB, the Emax turned out to be 107% and the IC50 is 525 nM. For the same compound, in the series on creatine kinase, the Emax at 10 µM is less than 35%.

For `CC1c2cc(F)ccc2-c2ccccc2N1S(=O)(=O)c1ccc(O)c(F)c1` (centres unmarked) [Example 49, 2-Fluoro-4-[(8-fluoro-6-methylphenanthridin-5(6H)-yl)sulfonyl]phenol], the melting point is 191 °C. The IC50 in the series on ER/NF-κB is greater than 10000 nM. Further, the Emax at 10 µM with creatine kinase is less than 35%.

Compound `CC1c2cc(F)ccc2-c2ccccc2N1S(=O)(=O)c1ccc(O)c(O)c1` (centres unmarked) [Example 50, 4-[(8-Fluoro-6-methylphenanthridin-5(6H)-yl)sulfonyl]benzene-1,2-diol] yielded a melting point of 165 to 170 °C. Moreover, the IC50 in the series with ER/NF-κB is greater than 10000 nM. Further, the Emax at 10 µM with creatine kinase is less than 35%.

Turning to `CCC1c2cc(F)ccc2-c2cc(C)ccc2N1S(=O)(=O)c1ccc(O)cc1` (centres unmarked) [Example 51, 4-[(6-Ethyl-8-fluoro-2-methylphenanthridin-5(6H)-yl)sulfonyl]phenol], the melting point was in the range of 197 to 200 °C. Moreover, in the series with ER/NF-κB, the Emax came out at 106% and the IC50 was found to be 56 nM. Moreover, in the series with creatine kinase, the EC50 was 77 nM and the Emax worked out at 27%.

The compound `CCC1c2cc(F)ccc2-c2ccccc2N1S(=O)(=O)c1ccc(OC(=O)CC(C)(C)C)cc1` (centres unmarked) [Example 53, 4-[(6-Ethyl-8-fluorophenanthridin-5(6H)-yl)sulfonyl]phenyl 3,3-dimethylbutanoate] yielded a melting point of 128 °C. Also, in the series with ER/NF-κB, the Emax came out at 76% and the IC50 was 764 nM. Besides, in the series with creatine kinase, the Emax at 10 µM was less than 35%.

The compound `CCC(=O)Oc1ccc(S(=O)(=O)N2c3ccccc3-c3ccc(F)cc3C2CC)cc1` (centres unmarked) [Example 54, 4-[(6-Ethyl-8-fluorophenanthridin-5(6H)-yl)sulfonyl]phenyl propionate] yielded a melting point of 111 to 112 °C. Further, in the series with ER/NF-κB, the Emax was determined as 87% and the IC50 was determined as 423 nM. Moreover, in the series with creatine kinase, the EC50 was 839 nM and the Emax is 24%.

On to `CC1c2ccccc2-c2ccccc2N1S(=O)(=O)c1ccc(O)c(F)c1` (centres unmarked) [Example 56, 2-Fluoro-4-[(6-methylphenanthridin-5(6H)-yl)sulfonyl]phenol], for which the melting point lay in the range of 172 to 174 °C. In the series with ER/NF-κB, the Emax was 100% and the IC50 is 1440 nM. Moreover, in the series with creatine kinase, the 50% effective concentration (EC50) came out at 750 nM and the Emax worked out at 34%.

As to `CC1c2ccccc2-c2cc(Br)ccc2N1S(=O)(=O)c1ccc(O)c(F)c1` (centres unmarked) [Example 57, 4-[(2-Bromo-6-methylphenanthridin-5(6H)-yl)sulfonyl]-2-fluorophenol], the melting point fell in the range of 203 to 206 °C. In the series with ER/NF-κB, the IC50 was greater than 10000 nM. In addition, in the series with creatine kinase, the Emax at 10 µM was less than 35%.

`CC1c2ccccc2-c2ccccc2N1S(=O)(=O)c1ccc(O)c(C(F)(F)F)c1` (centres unmarked) [Example 58, 4-[(6-Methylphenanthridin-5(6H)-yl)sulfonyl]-2-(trifluoromethyl)phenol] showed a melting point of 213 to 215 °C. Further, the IC50 in the series with ER/NF-κB is greater than 10000 nM. The Emax at 10 µM in the series on creatine kinase was less than 35%.

For the compound `Cc1cc(S(=O)(=O)N2c3ccccc3-c3ccccc3C2C)cc(C)c1O` (centres unmarked) [Example 59, 2,6-Dimethyl-4-[(6-methylphenanthridin-5(6H)-yl)sulfonyl]phenol], the melting point was 211 to 213 °C. Besides, in the series on ER/NF-κB, the Emax worked out at 102% and the IC50 came to 1720 nM. In the series with creatine kinase, the EC50 came out at 2930 nM and the Emax stood at 22%.

Consider `Cc1ccc2c(c1)C(C)N(S(=O)(=O)c1ccc(O)cc1)c1ccccc1-2` (centres unmarked) [Example 60, 4-[(6,8-Dimethylphenanthridin-5(6H)-yl)sulfonyl]phenol], for which the melting point lay within 111 to 113 °C. In addition, in the series on ER/NF-κB, the Emax is 95% and the IC50 was 257 nM. The Emax at 10 µM in the series on creatine kinase was less than 35%.

In the case of `CC1c2cc(Cl)ccc2-c2cc(Br)ccc2N1S(=O)(=O)c1ccc(O)cc1` (centres unmarked) [Example 62, 4-[(2-Bromo-8-chloro-6-methylphenanthridin-5(6H)-yl)sulfonyl]phenol], the melting point lay within 213 to 215 °C. Besides, in the series with ER/NF-κB, the Emax stood at 90% and the IC50 was 120 nM. The Emax at 10 µM in the series on creatine kinase was less than 35%.

In the case of `C[C@@H]1c2ccccc2-c2ccc(F)cc2N1S(=O)(=O)c1cccc(O)c1` [Example 107, 3-{[(6R)-3-Fluoro-6-methylphenanthridin-5(6H)-yl]sulfonyl}phenol], in the series with IL-6, the Emax worked out at 79% and the IC50 was determined as 1330 nM. Further, in the series with creatine kinase, the EC50 was 110 nM and the Emax amounted to 20%.

On to `C[C@H]1c2ccccc2-c2ccc(F)cc2N1S(=O)(=O)c1cccc(O)c1` [Example 108, 3-{[(6S)-3-Fluoro-6-methylphenanthridin-5(6H)-yl]sulfonyl}phenol], for which, in the series with IL-6, the Emax stood at 92% and the IC50 amounted to 43 nM. In the series with creatine kinase, the EC50 was determined as 152 nM and the Emax was 11%.
